{
  "source": "patent US7109171B2",
  "about": "“Methods for treating FSH related conditions with GnRH antagonists” (Praecis Pharmaceuticals Inc., priority 2000, dated 2006)",
  "origin": "cited, not measured here",
  "key": {"FSH": {"tested_on": "FSH", "conditions": "single bolus injection"}, "LH": {"tested_on": "LH", "conditions": "in vivo"}},
  "note": "Square brackets hold non-standard residues; d marks the D form. Peptide text beside a SMILES is read from it. dPhe(4-Cl) = N[C@H](Cc1ccc(Cl)cc1)C(=O)O; d2Nal = N[C@H](Cc1ccc2ccccc2c1)C(=O)O; dCit = NC(=O)NCCC[C@@H](N)C(=O)O; d3Pal = N[C@H](Cc1cccnc1)C(=O)O",
  "data": [
    {"molecule": "Nal-Glu", "values": [
      {"measurement": "effect on FSH levels", "setting": "FSH", "result": "did not significantly affect"},
      {"measurement": "effect on LH levels", "setting": "LH", "result": "reduced"}
    ]},
    {"molecule": "CC(=O)N[C@H](Cc1ccc2ccccc2c1)C(=O)N[C@H](Cc1ccc(Cl)cc1)C(=O)N[C@H](Cc1cccnc1)C(=O)N[C@@H](CO)C(=O)N[C@@H](Cc1ccc(O)cc1)C(=O)N[C@H](CCCNC(N)=O)C(=O)N[C@@H](CC(C)C)C(=O)N[C@@H](CCCNC(=N)N)C(=O)N1CCC[C@H]1C(=O)N[C@H](C)C(N)=O", "note": "[Cetrorelix] (Ac-[d2Nal][dPhe(4-Cl)][d3Pal]SY[dCit]LRP[dA]-NH2)", "values": [
      {"measurement": "effect on FSH levels", "setting": "FSH", "result": "did not significantly affect"},
      {"measurement": "effect on LH levels", "setting": "LH", "result": "reduced"}
    ]}
  ]
}
